In patent US20240417393A1, “CERTAIN 2,5-DIAZABICYCLO[4.2.0]OCTANES AS GLP-1 RECEPTOR MODULATORS” (ASTRAZENECA AB, priority 2021, published 2024):

Experiments:
human GLP-1R receptor = target: T1, human GLP-1R receptor (Homo sapiens, UniProt P43220, L260F); assay: CHOK1 GLP-1R cAMP Assay (HTRF); format: cell-based; conditions: CHO-K1 cells stably expressing human GLP-1R (Leu260Phe variant), 20 min at rt
T1 construct: expressed in transfected cells; host or cells: CHO-K1 (ATCC CCL-61)
Procedure: A cell line stably expressing the human GLP-1R receptor (NM_002062.5, including the naturally-occurring variant Leu260Phe) in a CHO-K1 (ATCC® CCL-61™) was used for assay.
GLP-1 receptor mediated agonist activity was determined in a cell-based assay measuring cyclic adenosine monophosphate (cAMP) levels in cells using Homogeneous Time-Resolved Fluorescence (HTRF) cAMP detection kit (CisBio catalog #62AM4PEC, cAMP Gs Dynamic range kit). The cAMP detection method is based on a competitive immunoassay, in which cAMP produced by the cells and cAMP labeled with the dye d2 compete for binding to a Europium-Cryptate-labeled anti-cAMP antibody. The specific HTRF signal is inversely proportional to the concentration of cAMP.
Compounds were added to individual well in 384 well-assay plates (Greiner #784076) using an Echo (LabCyte) dispenser from 10 mM stocks. Varying concentration of compounds were added to wells, and DMSO was used to normalize each well to a volume of 100 nL. A dose response curve of GLP-1(7-36)NH2 (Bachem H-6795) was included in each run. 5 μL of cAMP concentration response standards are applied in specified wells in the assay plates. Cryo-preserved cells are thawed and resuspended in assay buffer pre-heated to 37° C. (20 mM 2-[4-(2-hydroxyethyl)piperazin-1-yl]ethanesulfonic acid (HEPES) pH 7.4, 1× Hank's Balanced Salt Solution (HBSS, Life Technologies #14065) supplemented with 0.1% (w/v) bovine serum albumin (Sigma, A-7030)). Cells were centrifuged at 250*g for 5 min at rt, and resuspended in room tempered assay buffer to a final density of 0.16*10^6 cell/mL, to deliver 800 cells/well. 5 μL of assay buffer with 1 mM 3-isobutyl-1-methylxanthin (IBMX; Sigma cat I-7018) was dispensed per well in assay plates using a multidrop combi (Thermo Scientific) subsequently 5 μL of cell suspension was distributed to relevant wells in the assay using a multidrop dispenser. Assay plates were incubated 20 min at rt.
Detection reagents, Europium-Cryptate-labeled anti-cAMP antibody and cAMP labeled with the dye d2, are diluted in lysis buffer, provided by the manufacturer. 5 μL of each detection reagent is supplemented to each assay well using a multidrop dispenser. Assay plates are incubated in the dark for at least one h. The HTRF signal is measured using the HTRF module (excitation: 337 nm, emission A: 665 nm and emission B: 620 nm) in Pherastar FSX (BMG Labtech).
Raw data were converted to pM cAMP using the cAMP standard curve included in each run. Converted data were further analyzed in Genedata Screener (Genedata) and EC50 determinations were made from agonist dose-response curves analyzed with a curve fitting is program using a 4-parameter logistic dose response equation (Equation y=A+((B-A)/1+((C/x)^D))) where A is no stimulation, B is full stimulation, C is the EC50 and D is the Hill slope). The percent effect was determined relative to a saturating concentration of a full GLP-1R agonist (GLP-1(7-36)NH2 has 100% effect in this assay setup).

[1] = target: T2, GLP-1R in a pancreatic insulinoma cell line (EndoC-PH1) (Homo sapiens, UniProt P43220); assay: EndoC cAMP Accumulation Assay (HTRF); format: cell-based; conditions: EndoC-PH1 human pancreatic beta cell line, endogenous GLP-1R, 30 min at rt
T2 construct: host or cells: EndoC-βH1 human pancreatic beta cell line
From the text: EndoC cAMP Accumulation Assay
A HTRF cAMP assay (cAMP Gs dynamic kit; CisoBio Cat #62AM4PEJ) was used to identify agonists of GLP-1R in a pancreatic insulinoma cell line (EndoC-PH1). […] EndoC-PHlcells have detectable GLP-1R messenger ribonucleic acid (mRNA) as detected by quantitative polymerase chain reaction (qPCR). […] The EndoC-PH1 cell line is a valid model of human beta cells and applicable for screenings to identify novel drug target candidates (Mol. Metab., 2018, 8, 144-157). CisBio HTRF cAMP kits are based on a competitive immunoassay using cryptate-labelled anti-cAMP antibody and d2-labeled cAMP. The detection kit is intended for the direct is quantitative determination of cAMP. The specific signal (i.e. energy transfer) is inversely proportional to the concentration of cAMP in the standard or sample. Test compounds (10 mM in DMSO) were diluted into assay buffer (HBSS (Sigma #H8264) supplemented with 25 mM HEPES (Gibco #15630, pH 7.4), 0.1% BSA (Sigma #A3059) and 0.5 mM IBMX (Sigma #I7018) included fresh on the day of the assay) into 96 well U-bottom plates (Greiner #650201). Diluted compounds were transferred to ECHO source polypropelene plates (Labcyte #P-05525) and dose response curves were dispensed acoustically using ECHO 550 into black shallow-well u-bottom 384-well HTRF Assay Plates (Corning 4514). Cryovials of EndoC-H1 (supplied at 1×10e^7 cells/vial) were used directly for screening. The cryovials and were removed from N2(1) and thawed rapidly in a 37° C. water bath. The cells were resuspended in assay buffer and centrifuged at 300 g for 5 min. Cells were resuspended in assay buffer at the appropriate concentration, typically at 12e5 cells per mL (3000 cells per well, dependent on cell batch) and 2.5 μL diluted cells were added to all wells of destination plate by Multidrop combi reagent dispenser (Thermofisher). The plates were incubated at rt for 30 min. The assay was stopped by adding 2.5 μL anti-cAMP cryptate solution to all wells and 2.5 μL cAMP-d2 solution (both diluted 1:20 in lysis buffer) to columns 1-22 by Combi drop. A volume of 2.5 μL cAMP-d2 solution was added to wells E23 to P24 and 2.5 μL lysis buffer added to wells A23 to D24 by multichannel pipette. The plates were incubated at rt for 1 h and read on an Envision plate reader using excitation wavelength of 320 nm and emission of […] and 660 nm.
Raw data from Envision is converted to % DeltaF according to the manufacturer's instructions. Dose response curves are analysed via 4-Parameter Logistical Analysis and assay plate Z’ values obtained. Samples are graphed as percentage (%) activation plots compared to […] with assay window defined by negative control as basal cell is cAMP levels and positive control are defined by maximum GIP (82.5 nM) signal. GLP-1 (7-36 amide, Bachem H-6795) dose response curve was included on all plates.

T1 sequence (P43220 24-463 L260F): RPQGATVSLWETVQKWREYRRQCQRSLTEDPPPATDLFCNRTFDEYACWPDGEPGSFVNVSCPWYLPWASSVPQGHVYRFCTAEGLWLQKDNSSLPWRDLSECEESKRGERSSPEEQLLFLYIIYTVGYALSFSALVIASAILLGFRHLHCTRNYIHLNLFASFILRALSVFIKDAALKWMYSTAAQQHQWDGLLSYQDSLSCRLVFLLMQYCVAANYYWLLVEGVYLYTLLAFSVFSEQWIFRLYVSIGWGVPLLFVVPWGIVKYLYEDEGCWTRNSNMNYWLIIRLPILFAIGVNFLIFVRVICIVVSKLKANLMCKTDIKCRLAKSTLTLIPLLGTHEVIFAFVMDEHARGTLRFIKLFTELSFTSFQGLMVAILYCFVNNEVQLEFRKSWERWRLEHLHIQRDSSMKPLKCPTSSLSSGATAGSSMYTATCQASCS
T2 sequence (P43220 24-463): as the sequence (P43220 24-463 L260F) above, with F237L counted along it

SMILES | EC50 (human GLP-1R receptor) [nM] | EC50 [1] [nM]
C[C@]1(c2ccc(Cl)cn2)Oc2cccc(N3CCN(Cc4nc5c(Cl)cc(C(=O)O)cc5n4CC4(CC#N)CC4)[C@H]4CC[C@@H]43)c2O1 (single isomer, unassigned) [Example 26a] | 350 | 450
C[C@]1(c2ccc(Cl)cc2F)Oc2cccc(N3CCN(Cc4nc5c(F)cc(C(=O)O)cc5n4C[C@@H]4CCO4)[C@H]4CC[C@H]43)c2O1 (single isomer, unassigned) [Example 9a] | 57 | 340
C[C@]1(c2ccc(Cl)cn2)Oc2cccc(N3CCN(Cc4nc5c(Cl)cc(C(=O)O)cc5n4C[C@@H]4CCO4)[C@H]4CC[C@@H]43)c2O1 (single isomer, unassigned) [Example 3a, 4-Chloro-2-(((1R*,6R*)-5-((R*)-2-(5-chloropyridin-2-yl)-2-methylbenzo[d][1,3]dioxol-4-yl)-2,5-diazabicyclo[4.2.0]octan-2-yl)methyl)-1-(((S)-oxetan-2-yl)methyl)-1H-benzo[d]imidazole-6-carboxylic acid] | 220 | 4400
C[C@]1(c2ccc(Cl)cc2F)Oc2cccc(N3CCN(Cc4nc5ccc(C(=O)O)cc5n4C[C@@H]4CCO4)[C@H]4CC[C@H]43)c2O1 (single isomer, unassigned) [Example 18a, 2-(((1R*,6S*)-5-((R*)-2-(4-Chloro-2-fluorophenyl)-2-methylbenzo[d][1,3]dioxol-4-yl)-2,5-diazabicyclo[4.2.0]octan-2-yl)methyl)-1-(((S)-oxetan-2-yl)methyl)-1H-benzo[d]imidazole-6-carboxylic acid] | 0.98 | 3.3
C[C@]1(c2ccc(Cl)cn2)Oc2cccc(N3CCN(Cc4nc5c(F)cc(C(=O)O)cc5n4CC4(CC#N)CC4)[C@H]4CC[C@@H]43)c2O1 (single isomer, unassigned) [Example 23b] | 27 | 85
COc1cc(C(=O)O)cc2c1nc(CN1CCN(c3cccc4c3OC(C)(c3ccc(Cl)cn3)O4)[C@H]3CC[C@@H]31)n2CCOC1CC1(F)F (mixture of isomers) [Example 13, rac-2-(((1R,6R)-5-(2-(5-Chloropyridin-2-yl)-2-methylbenzo[d][1,3]dioxol-4-yl)-2,5-diazabicyclo[4.2.0]octan-2-yl)methyl)-1-(2-(2,2-difluorocyclopropoxy)ethyl)-4-methoxy-1H-benzo[d]imidazole-6-carboxylic acid] | 5.2 | –
C[C@]1(c2ccc(Cl)cn2)Oc2cccc(N3CCN(Cc4nc5c(F)cc(C(=O)O)cc5n4C[C@@H]4CCO4)[C@H]4CC[C@H]43)c2O1 (single isomer, unassigned) [Example 1a, 2-((1R*,6S*)-5-(R*)-2-(5-Chloropyridin-2-yl)-2-methylbenzo[d][1,3]dioxol-4-yl)-2,5-diazabicyclo[4.2.0]octan-2-yl)methyl)-4-fluoro-1-(((S)-oxetan-2-yl)methyl)-1H-benzo[d]imidazole-6-carboxylic acid] | 66 | 280
C[C@]1(c2ccc(Cl)cn2)Oc2cccc(N3CCN(Cc4nc5c(Cl)cc(C(=O)O)cc5n4C[C@@H]4CCO4)[C@H]4CC[C@H]43)c2O1 (relative stereo) [Example 20a, 4-Chloro-2-(((1R*,6S*)-5-((R*)-2-(5-chloropyridin-2-yl)-2-methylbenzo[d1[1,3]dioxol-4-yl)-2,5-diazabicyclo[4.2.0]]octan-2-yl)methyl)-1-(((S)-oxetan-2-yl)methyl)-1H-benzo[d]imidazole-6-carboxylic acid] | 42 | –
C[C@]1(c2ccc(Cl)cn2)Oc2cccc(N3CCN(Cc4nc5c(Cl)cc(C(=O)O)cc5n4C[C@@H]4CCO4)[C@H]4CC[C@H]43)c2O1 (single isomer, unassigned) [Example 20b, 4-Chloro-2-(((1R*,6S*)-5-((R*)-2-(5-chloropyridin-2-yl)-2-methylbenzo[d][1,3]dioxol-4-yl)-2,5-diazabicyclo[4.2.0]octan-2-yl)methyl)-1-(((S)-oxetan-2-yl)methyl)-1H-benzo[d]imidazole-6-carboxylic acid] | 140 | –
